Results on one compound are retold here after US7410982B2, “Propanamine derivatives as serotonin and norepinephrine reuptake inhibitors” (Eli Lilly and Company, priority 2002, dated 2008).

The melting point is the temperature of the solid-liquid transition.

The compound `CNCC[C@@H](Oc1cncc2sccc12)c1ccccc1.Cl` had a melting point of 68.1 °C.
